Results on 8 molecules are retold here after PMC3921447, “Homologous and heterologous desensitization of guanylyl cyclase-B signaling in GH3 somatolactotropes” (Cell and Tissue Research, 2013).

One assay has as its target T1, GC-A (Rattus norvegicus, UniProt P18910).
T1 construct: Evidence of homologous desensitization of endogenous GC-A- and GC-B-mediated signaling in GH3 cells; endogenous in cells; host or cells: GH3 rat somatolactotrope cells
T1 sequence (P18910 29-1057): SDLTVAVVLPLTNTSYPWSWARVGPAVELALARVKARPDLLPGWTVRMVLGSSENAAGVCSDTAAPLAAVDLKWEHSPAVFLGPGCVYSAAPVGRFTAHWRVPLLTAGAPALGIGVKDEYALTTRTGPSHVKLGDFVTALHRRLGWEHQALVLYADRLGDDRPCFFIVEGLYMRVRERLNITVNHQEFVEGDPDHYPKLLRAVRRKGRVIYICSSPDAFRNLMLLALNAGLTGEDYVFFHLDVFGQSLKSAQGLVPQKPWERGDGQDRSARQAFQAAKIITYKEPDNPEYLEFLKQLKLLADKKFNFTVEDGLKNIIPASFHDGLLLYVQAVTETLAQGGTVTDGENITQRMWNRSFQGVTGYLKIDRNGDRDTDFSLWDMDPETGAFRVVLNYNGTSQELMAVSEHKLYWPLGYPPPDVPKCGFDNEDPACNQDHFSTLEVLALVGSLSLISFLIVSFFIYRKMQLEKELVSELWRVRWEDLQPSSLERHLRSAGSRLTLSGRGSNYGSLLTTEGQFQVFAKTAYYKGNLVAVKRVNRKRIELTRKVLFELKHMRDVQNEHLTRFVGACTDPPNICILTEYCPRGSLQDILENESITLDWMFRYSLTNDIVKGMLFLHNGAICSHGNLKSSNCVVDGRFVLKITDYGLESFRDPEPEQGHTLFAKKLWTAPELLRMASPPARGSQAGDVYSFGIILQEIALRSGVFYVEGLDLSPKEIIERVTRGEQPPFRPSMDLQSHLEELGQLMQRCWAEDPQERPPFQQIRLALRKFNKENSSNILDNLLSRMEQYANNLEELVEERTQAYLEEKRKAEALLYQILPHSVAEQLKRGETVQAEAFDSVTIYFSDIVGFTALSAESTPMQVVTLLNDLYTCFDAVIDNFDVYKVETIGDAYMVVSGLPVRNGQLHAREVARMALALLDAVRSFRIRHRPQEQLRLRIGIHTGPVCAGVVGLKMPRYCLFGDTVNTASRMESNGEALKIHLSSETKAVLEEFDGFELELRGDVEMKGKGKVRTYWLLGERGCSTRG
In words: Heterologous desensitization of ANP-stimulated (GC-A) cGMP accumulation in GH3 cells. In kind it is cell-based. From the text:
(§1) Sphingolipids and calcium have been implicated in regulating natriuretic peptide signaling (Abbey-Hosch et al. [2004]; Abbey and Potter [2002]). Therefore, we examined the role of sphingosine-1-phosphate (S1P) on CNP-stimulated cGMP accumulation. […] However, S1P pre-treatment did cause desensitization of CNP-stimulated cGMP accumulation (by 30 ± 2.7 % compared with control, **P < 0.01).
Fig. 6 Evidence of sphingosine-mediated but not calcium-mediated, heterologous desensitization of GC-B signaling in GH3 somatolactotrope cells. […]

Assay [1] deals with T2, GC-B (Rattus norvegicus, UniProt P16067).
T2 construct: rapid homologous desensitization of endogenous GC-B receptors in GH3 cells; endogenous in cells; host or cells: GH3 rat somatolactotrope cells
T2 sequence (P16067 17-1047): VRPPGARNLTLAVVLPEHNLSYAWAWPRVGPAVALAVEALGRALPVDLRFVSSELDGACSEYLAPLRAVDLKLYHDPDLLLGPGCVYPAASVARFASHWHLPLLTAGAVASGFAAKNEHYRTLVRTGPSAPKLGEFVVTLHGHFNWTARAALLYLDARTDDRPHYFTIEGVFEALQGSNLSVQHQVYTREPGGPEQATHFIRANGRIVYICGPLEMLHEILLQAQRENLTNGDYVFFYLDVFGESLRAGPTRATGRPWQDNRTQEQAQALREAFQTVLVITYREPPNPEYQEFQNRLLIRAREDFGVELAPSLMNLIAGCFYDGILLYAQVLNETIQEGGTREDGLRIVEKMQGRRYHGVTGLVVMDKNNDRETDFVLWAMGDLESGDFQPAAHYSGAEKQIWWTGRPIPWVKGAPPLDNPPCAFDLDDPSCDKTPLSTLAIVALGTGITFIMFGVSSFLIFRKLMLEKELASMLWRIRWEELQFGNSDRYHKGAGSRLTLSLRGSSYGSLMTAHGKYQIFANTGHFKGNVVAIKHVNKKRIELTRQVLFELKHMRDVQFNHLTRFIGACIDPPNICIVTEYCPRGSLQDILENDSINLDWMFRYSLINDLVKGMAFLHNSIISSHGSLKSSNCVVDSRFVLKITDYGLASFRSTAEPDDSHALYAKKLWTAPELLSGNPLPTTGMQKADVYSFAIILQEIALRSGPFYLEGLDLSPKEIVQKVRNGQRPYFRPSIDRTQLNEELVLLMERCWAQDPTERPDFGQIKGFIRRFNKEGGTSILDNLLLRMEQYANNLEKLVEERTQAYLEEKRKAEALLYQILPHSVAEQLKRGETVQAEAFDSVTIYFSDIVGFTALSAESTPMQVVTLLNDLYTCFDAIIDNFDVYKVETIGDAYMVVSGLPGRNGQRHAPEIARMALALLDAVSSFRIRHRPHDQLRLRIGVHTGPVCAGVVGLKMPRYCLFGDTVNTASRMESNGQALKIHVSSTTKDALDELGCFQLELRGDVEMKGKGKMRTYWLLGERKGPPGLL
In words: Heterologous desensitization of CNP-stimulated (GC-B) cGMP accumulation in GH3 cells. In kind it is cell-based.
Text: as §1
(§2) Fig. 6 Evidence of sphingosine-mediated but not calcium-mediated, heterologous desensitization of GC-B signaling in GH3 somatolactotrope cells. GH3 cells were pre-treated with PSS containing either (a, b) 10 μM sphingosine-1-phosphate (S1P) or (c, d) 1 μM A23187 (calcium ionophore) for 30 min in the absence of IBMX, before a 15-min stimulation with either 100 nM CNP (a, c) or 100 nM ANP (b, d) in the presence of 1 mM IBMX.
(§3) Subsequent experiments examined the potential regulation of GC-B signaling by other peptide hormones. To determine whether the GC-B receptor underwent heterologous desensitization in GH3 cells, the effect of three known activators of PKC on CNP-stimulated cGMP accumulation was analyzed. […] To establish whether the TRH-induced heterologous desensitization of GC-B signaling was PKC-dependent, GH3 cells were pre-treated with either 0 or 1 μM GF109203X for 30 min to inhibit PKC activity. After this, cells were further pre-treated in the absence or presence of GF109203X and 0 or 100 nM TRH for a further 30 min, prior to stimulation with 0 or 100 nM CNP for a final 15-min stimulation in the presence of 1 mM IBMX.
(§4) Fig. 7 Protein kinase C (PKC)-dependent heterologous desensitization mediates the effects of thyrotrophin-releasing hormone (TRH) on CNP-stimulated GC-B signaling in GH3 somatolactotrope cells. a GH3 cells were pre-treated with PSS containing either 0 or 100 nM TRH, phorbol-12-myristate-13-acetate (PMA), or pituitary adenylate cyclase-activating polypeptide (PACAP) for 30 min in the absence of IBMX, before a 15-min stimulation with either 0 or 100 nM CNP in the presence of 1 mM IBMX.

Assay [2] deals with T2, GC-B. Briefly: Effect of protein phosphatase inhibitors on rapid homologous desensitization of CNP-stimulated cGMP accumulation in GH3 cells. In kind it is cell-based. The following applies: for rate of cGMP accumulation from 5 to 15 min (desensitization): 100 nM CNP, 1 mM IBMX, 30 min pre-treatment with 100 nM OA, 1 nM cypermethrin or 1 mM Na3VO4, control = CNP alone, n = 3; for reversal of the failure to maintain the initial rate of cGMP accumulation: 30 min pre-treatment with phosphatase inhibitor, then 100 nM CNP, discussion statement. The procedure:
Fig. 2 Rapid homologous desensitization of CNP-dependent but not ANP-dependent cGMP accumulation in GH3 cells. Cells were treated with PSS containing either (a) 100 nM CNP or (b) 100 nM ANP for 0–15 min in the presence of 1 mM IBMX.
Similar short time-courses were performed, except that some cells were pre-treated with 100 nM okadaic acid (OA, a PP2A inhibitor), 1 nM cypermethrin (a PP2B inhibitor), or 1 mM sodium orthovanadate (Na3VO4, a protein tyrosine phosphatase inhibitor) for 30 min prior to CNP treatment (Fig. 2c).

The next assay has as its system GH3 cells. In words: Basal cGMP accumulation in GH3 cells after pre-treatment. The following applies: 30 min pre-treatment. It counts as cell-based, rat.
Text: as §1, §2, §3, §4

Assay [3] relates to GC-B. The following applies: NIH3T3, A10, 293 T cells; ref Abbey-Hosch et al. [2004], [2005]; cited from earlier work. From the text: Heterologous desensitization of the natriuretic peptide receptors has been widely reported. Sphinogosine signaling is implicated in GC-B desensitization in NIH3T3 fibroblasts, A10 vascular smooth muscle cells and 293 T cells (Abbey-Hosch et al. [2004], [2005]). […] In the current study, we observed a modest effect of S1P pre-treatment of CNP-stimulated cGMP accumulation in GH3 ce ...

Where [4] appears, read: 100 nM TRH, PMA or PACAP, ns, P > 0.05, Fig. 7a.

Take `CNc1ccc2oc(C[C@H]3O[C@@]4(CC[C@H]3C)O[C@H]([C@H](C)C(=O)c3ccc[nH]3)[C@H](C)C[C@H]4C)nc2c1C(=O)O` [A23187]: the “effect on ANP-stimulated cGMP accumulation” value on GC-A (10 μM A23187 30 min pre-treatment, then 100 nM ANP 15 min, Fig. 6d) is given as “failed to alter either CNP- or ANP-stimulated cGMP accumulation”. The “effect on CNP-stimulated cGMP accumulation” value on GC-B [1] (10 μM A23187 30 min pre-treatment, then 100 nM CNP 15 min, Fig. 6c) is on record as “failed to alter either CNP- or ANP-stimulated cGMP accumulation”.

As to `[Na+].[Na+].[Na+].[O]=[V]([O-])([O-])[O-]` [Na3VO4, sodium orthovanadate], on GC-B [2], the “rate of cGMP accumulation from 5 to 15 min (desensitization)” value (shortened to “rate … (desensitization)”) is listed as “failed to maintain a significant rate of cGMP accumulation” and the “reversal of the failure to maintain the initial rate of cGMP accumulation” value (from here on “reversal of the failure”) was “failed to reverse the apparent homologous desensitization”.

Regarding `C=C1[C@@H](O)[C@@H]2O[C@]3(CC[C@H](/C=C/[C@@H](C)[C@@H]4CC(C)=C[C@@]5(O[C@H](C[C@@](C)(O)C(=O)O)CC[C@H]5O)O4)O3)CC[C@H]2O[C@@H]1[C@@H](O)C[C@H](C)[C@H]1O[C@@]2(CCCCO2)CC[C@H]1C` [OA, okadaic acid], on GC-B [2], the “rate … (desensitization)” value is “maintained a significant rate of cGMP accumulation from 5 to 15 min” and the “reversal of the failure” value is listed as “partially reversed the failure to maintain the initial rate of cGMP accumulation”.

On to `CCCCCCCCCCCCC/C=C/[C@@H](O)[C@@H](N)COP(=O)(O)O` [S1P, sphingosine-1-phosphate], for which the “desensitization of ANP-stimulated cGMP accumulation” value on GC-A (10 μM S1P 30 min pre-treatment, then 100 nM ANP 15 min with 1 mM IBMX, ns, P > 0.05, Fig. 6b) was “did not result in desensitization of ANP-stimulated cGMP accumulation”. Further, in the assay on GH3 cells (10 μM S1P, Fig. 6a), the “basal cGMP accumulation” value is given as “failed to significantly alter basal cGMP accumulation”. Further, the “mechanism of GC-B desensitization” value in the assay on GC-B [3] was “does not require PKC activation but is reliant on the elevation of intracellular Ca^2+ levels”. The “desensitization (reduction) of CNP-stimulated cGMP accumulation vs control” value on GC-B [1] (10 μM S1P 30 min pre-treatment without IBMX, then 100 nM CNP 15 min with 1 mM IBMX, **P < 0.01, n = 3, Fig. 6a) is given as 30 ± 2.7%.

On to `CC1(C)C(C=C(Cl)Cl)C1C(=O)OC(C#N)c1cccc(Oc2ccccc2)c1` (stereo not drawn) [cypermethrin], for which, at GC-B [2], the “rate … (desensitization)” value was “failed to maintain a significant rate of cGMP accumulation” and the “reversal of the failure” value is recorded as “failed to reverse the apparent homologous desensitization”.

Turning to `C[C@H](CCC(=O)O)C[C@H](C)C[C@H](C)C(=O)/C=C(\O)[C@H](C)C[C@H](C)C/C=C/[C@@H](C)[C@@H](O)[C@@H](C)[C@@H](O)C[C@@H]1CC[C@@](C)([C@H]2CC[C@@](C)([C@@H](C)O)O2)O1` [ionomycin], in the assay with GC-B [3], the “mechanism of GC-B desensitization” value was “having a similar effect”.

Turning to “pituitary adenylate cyclase-activating polypeptide [PACAP]”, the “basal cGMP accumulation” value with GH3 cells (setting [4]) is reported as “failed to alter basal cGMP accumulation”. Besides, the “effect on CNP-stimulated cGMP accumulation” value at GC-B [1] (100 nM PACAP 30 min pre-treatment, then 100 nM CNP 15 min with 1 mM IBMX, ns, P > 0.05, Fig. 7a) is “failed to alter CNP-stimulated cGMP accumulation”.

As to thyrotrophin-releasing hormone [TRH], the “basal cGMP accumulation” value with GH3 cells (setting [4]) is “failed to alter basal cGMP accumulation”. The “CNP-stimulated cGMP, % of control response to CNP (reduced to)” value at GC-B [1] (100 nM TRH 30 min pre-treatment without GF109203X, then 100 nM CNP 15 min with 1 mM IBMX, P < 0.001, n = 3, Fig. 7b) is given as 20.1 ± 5.4%. Also, the “reduction in CNP-stimulated cGMP accumulation compared with control” value at GC-B [1] (100 nM, 30 min pre-treatment without IBMX, then 100 nM CNP 15 min with 1 mM IBMX, ***P < 0.001, n = 3, Fig. 7a) was 44.6 ± 2.5%.
